# Assay results: US20080089860A1, “Therapeutic compositions and methods useful in treating cancer” (priority 2006, published 2008)
# “Also recorded” adds a separate entry of the source.
# Columns and labels:
# DU145 tumors = DU145 tumors in athymic nude mice, sodium stibogluconate alone; settings: mouse, in vivo
# Procedure: Athymic nude mice (nu/nu, NCR), 4 weeks old (Taconic), were inoculated (s.c.) in the flanks with DU145 cells (3×10^6 cells/site) on day 0, Starting on day 2, the mice were subjected to no treatment (Control) or treatment with sodium stibogluconate (12 mg, […], daily, i.m., at the hip area). The dosage of sodium stibogluconate used in the study was similar to the effective daily dose of sodium stibogluconate for the treatment of murine leishmaniasis (Murray, et al. 1988). Tumor volume was measured and calculated using the formula for a prolate spheroid (V=4/3 7 a^2b) (Lindner, et al. 1997). Hematoxylin+Eosin (H.E.) stained tissue sections of internal organs and tumor inoculation sites tissues of the mice were prepared and subjected microscopic evaluation.
# Nude mice were inoculated with DU145 cells sub-cutaneously at the shoulder area. Two days after inoculation when tumors were visible, the mice were subjected to no treatment (control) or sodium stibogluconate treatment (daily injection of 440 mg/kg, intermuscular at the hip area). […] Histology of their major organs was unremarkable.
# WiT49-N1 cells = assay: WiT49-N1 Wilms tumor cell growth, MTT assay; type: cell-based, human; settings: day 6 culture; killing at 100 μg/ml
# Procedure: (§1) For cell proliferation assays, cells were grown in 10% FCS culture medium containing various amounts of IFNs and/or sodium stibogluconate in 96 well plates and cultured at 37° C. for 3 or 6 days as indicated. The numbers of viable cells in proliferation assays were determined by MTT assays as described in Phatak et al., J. Immunol. 167, 3391 (2001).
# WM35 cells = assay: WM35 melanoma cell growth; type: cell-based, human
# Procedure: as §1
# NB4 cells [1] = assay: NB4 cell proliferation, MTT assay; type: cell-based, human; settings: 12.5-400 μg/ml
# Procedure: The NB4 cell line (Lanotte et al., Blood 77, 1080 (1991)) was a gift from Dr. Dan Lindner of the Cleveland Clinic Foundation. […] and U937 cell lines were purchased from American Type Culture Collection (Rockville, Md.). These human […] cell lines were maintained in RPMI 1640 medium supplemented with 10% fetal calf serum (FCS). For cell proliferation assays, cells were cultured at 37° C. in 10% FCS medium containing various amounts of sodium stibogluconate for 6 days. The cell numbers in the cultures were determined by an MTT assay as described previously in Mosmann, J. Immunol. Methods 65, 55 (1983).
# Baf3 cells = assay: Baf3 cell proliferation assay; type: cell-based, murine
# Procedure: The murine hematopoietic cell line Baf3 was maintained in RPMI 1640 medium supplemented with 10% fetal calf serum (FCS) and murine IL-3 (20 units/ml) as described previously in Damen et al., J. Biol. Chem. 270, 23402 (1995). Human myeloid cell line TF-1 was maintained in RPMI 1640 supplemented with 10% FCS and 40 ng/ml of recombinant human GM-CSF as described previously in Thomassen et al., Clin. Immunol. 95, 85 (2000). For cell proliferation assays, cells were washed in 10% FCS medium twice, resuspended in 10% FCS medium, incubated at 37° C. for 16 hours, and then cultured at 37° C. in 10% FCS medium containing various amounts of cytokines, sodium stibogluconate, or potassium antimonyl tartrate for 3-6 days as indicated. The cell numbers in proliferation assays were determined by an MTT assay or by microscopic cell counting as indicated.
# DS cells = assay: DS lymphoma cell growth, MTT assay; type: cell-based, human; settings: day 3; IFN-alpha 1,000 u/ml
# Procedure: as §1
# NB4 cells [2] = assay: NB4 cell cycle analysis and Annexin V/propidium iodide assay; type: cell-based, human
# Procedure: […] Briefly, the cells were fixed in cold ethanol and incubated for 30 minutes at 4° C. in the dark with a solution of […], 1 mg/ml RNase and 0.1% NP-40. Analysis was performed immediately after staining using the CELLFIT program (Becton Dickinson, Mountain View, Calif.).
# ] Annexin V staining of exposed membrane phospholipid phosphatidylserine (PS) was done using the Annexin V assay kit (Pharmingen, San Diego, Calif.). Briefly, NB4 cells were cultured in the 10% FCS RPMI 1640 medium in the absence or presence of sodium stibogluconate (250 µg/ml) or ATRA (1 µM) for 3 days. Cells were then washed in PBS twice and stained in binding buffer (10 mM Hepes, pH 7.4; 140 mM NaCl; 2.5 mM CaCl2) containing Annexin V-FITC and propidium iodide for 15 min. The reaction was stopped by adding 10 volumes of binding buffer and analyzed by FACS (Becton Dickinson Facsvantage).
# DU145 cells = assay: DU145 prostate cancer cell growth, MTT assay; type: cell-based, human; settings: single agent, 50 μg/ml and 100 μg/ml
# Procedure: as §1
# (§2) NIH3T3 (Yi, et al., Blood 85, 87 (1995)), WM9 (Forsberg, et al., Proc. Nat. Acad. Sci. USA 90, 393 (1993)), DU145 (Mickey, et al., Cancer Res. 37, 4049 (1977)), LoVo (Drewinko, et al., Cancer Res. 36, 467 (1976)), HEY (Buick, et al., Cancer Res. 45, 3668 (1985)), U251 (Yoshida, et al., Cancer 50, 410 (1982)), A549 (Giard, et al., J. Natl. Cancer Inst. 51, 1417 (1973)) and SK-N-SH (Helson, et al., Cancer Res. 35, 2594 (1975)) cell lines have been described and were cultured in RPMI 1640 supplemented with 10% fetal calf serum (FCS). For measurement of sodium stibogluconate effects on cell growth in vitro, cells were cultured in the absence (−) or presence (+) of various amounts of sodium stibogluconate for 6 days with viable cells quantified by MTT assays (Mosmann, J. Immunol. Methods 65, 55 (1983)). Percentages of growth inhibition by sodium stibogluconate were calculated (.+−.x %).
# [3] = tested on: A549, Hey, LoVo, SK-N-SH, U251 and DU145 cell lines; assay: Growth of human cancer cell lines that express PRLs, MTT assay; type: cell-based; settings: 100 μg/ml, day 6
# Procedure: as §2
structure (smiles),measurement,setting,value
O.O.O.O.O.O.O.O.O.O=C([O-])[C@@H]1[O][Sb]2([O-])([O][Sb]34([OH])[O][C@H]([C@H](O)CO)[C@H]([O]3)[C@H](C(=O)[O-])[O]4)[O][C@H]([C@H](O)CO)[C@@H]1[O]2.[Na+].[Na+].[Na+] [sodium stibogluconate],histology of major organs,DU145 tumors,unremarkable
same,survival of mice,DU145 tumors,survived until the end of the study
same,sensitivity of WiT49-N1 cells,WiT49-N1 cells,sensitive; also recorded: complete or near complete killing
same,effect on WM35 melanoma cell line,WM35 cells,minimally affected
same,proliferation of NB4 cells,NB4 cells [1],markedly inhibited
same,IL-3-induced Baf3 growth,"Baf3 cells; 1,000 μg/ml",suppressed
same,cell proliferation and viability in the absence of IL-3,Baf3 cells; day 3 culture,failed to support cell proliferation or maintain cell viability
same,activity against DS cells,DS cells,modest activity
same,Annexin V staining of NB4 cells,NB4 cells [2]; 250 μg/ml for 6 days,stained positive by Annexin V
same,cell cycle distribution of NB4 cells,"NB4 cells [2]; 3 days, sodium stibogluconate 250 μg/ml, ATRA 1 μM",significant increase of cells at S phase
same,DU145 cells in day 6 culture,DU145 cells,killed all cells; also recorded: complete or near complete killing
same,cell killing of the cell lines,[3],near-complete cell killing
